Data on 4 compounds can be found in PMC2656996, “Functional cell permeable motifs within medically relevant proteins” (Journal of Biotechnology, 2007).

The subject of data set [1] is RAW 264.7 cells. The experiment in a line: Internalisation of NBD-labelled peptides, flow cytometry with dithionite quench. The class given is cell-based, murine. Particulars: increasing concentrations of NBD-labelled peptide, 2 h at 37 °C, DMEM 10% FCS, FACS, average of three independent experiments. As for the experimental part:
(§1) HeLa or RAW 264.7 cells were cultured at 37 °C, 10% CO2, in Dulbecco's modified Eagle's medium (DMEM) (Invitrogen), containing 10% foetal calf serum (FCS, Harlan), 100 U/ml penicillin and 100 μg/ml streptomycin. Quantification of internalisation of NBD-labelled peptides was carried out according to the procedure described by [Drin et al. (2001)]. Briefly, cells were seeded in six-well plates (5 × 10^5 cells/well) and treated with 0–160 μM of peptide for 2 h at 37 °C. Cells were washed twice in PBS, harvested using a solution of Versene (1:500) (Invitrogen) and re-suspended in 0.5 ml (final volume) of ice-cold PBS. Cells were analysed by flow cytometry using a Becton Dickinson FACS Scan instrument and the geometric mean of fluorescence intensity was considered to represent the amount of cell-associated peptide. Following flow cytometry, 5 μl of freshly prepared dithionite stock solution (1 M Na2S2O4 in 1 M Tris–HCl (pH 10)) was added to cells maintained at 4 °C for 5 min and analysed again with flow cytometry to measure residual fluorescence. Fluorescence from cells treated with dithionite only was subtracted from the fluorescence of cell-associated or internalised peptides to infer background values.
Background: In flow cytometry, cells or beads pass a laser one at a time.

A further data set relates to HeLa cells. The description is as above. The format is cell-based, human. Particulars: NBD-labelled peptide 10, 40 and 160 μM, 2 h at 37 °C, DMEM 10% FCS, FACS geometric mean fluorescence, dithionite-only background subtracted, average of three independent experiments. The protocol: as §1
The subject of data set [2] is RAW 264.7 cells. The data set is described as follows: Cell viability, CellTiter-Glo Luminescent Assay. The class given is cell-based, murine. As to conditions: RAW 264.7, 10, 40 and 160 μM peptide, incubation 2, 4, 8 and 18 h. The source says: CellTiter-Glo Luminescent Assay (Promega) was utilised to determine viability of RAW 264.7 cells following treatment with peptides, according to the manufacturer's instructions.
For orientation: ATP-based viability assays read luminescence as a measure of living cells.

Non-standard residues stand in square brackets, D forms with d. Residues, ends and D or L forms follow the SMILES beside them. N(NBD)Gly = O=C(O)CNc1ccc([N+](=O)[O-])c2nonc12

With `CSCC[C@H](NC(=O)[C@H](CCCCN)NC(=O)CNc1ccc([N+](=O)[O-])c2nonc12)C(=O)N[C@@H](C)C(=O)N[C@@H](CC(=O)O)C(=O)N[C@@H](Cc1c[nH]c2ccccc12)C(=O)N[C@@H](Cc1ccccc1)C(=O)N[C@@H](CCCNC(=N)N)C(=O)N[C@@H](CCC(N)=O)C(=O)N[C@H](C(=O)N[C@@H](CC(C)C)C(=O)N[C@@H](CC(C)C)C(=O)N[C@@H](CCCCN)C(=O)N[C@@H](CCCCN)C(=O)N1CCC[C@H]1C(=O)N[C@@H](CCCCN)C(=O)N[C@@H](CCCCN)C(=O)N[C@@H](CCCNC(=N)N)C(=O)N1CCC[C@H]1C(=O)N[C@@H](CC(N)=O)C(=O)N[C@@H](CO)C(=O)N1CCC[C@H]1C(=O)N[C@@H](CCC(=O)O)C(=O)N[C@@H](CO)C(=O)N[C@H](C(N)=O)[C@@H](C)O)[C@@H](C)O` [TIRAP] (H-[N(NBD)Gly]KMADWFRQTLLKKPKKRPNSPEST-NH2), the “Internalised peptide, mean cell fluorescence after sodium dithionite quencher” value (shortened to “Internalised peptide”) in the data set on RAW 264.7 cells [1] and with HeLa cells was “cell permeable properties” in each case. With `CSCC[C@H](NC(=O)[C@H](CCCCN)NC(=O)CNc1ccc([N+](=O)[O-])c2nonc12)C(=O)N[C@@H](C)C(=O)N[C@@H](CC(=O)O)C(=O)N[C@@H](Cc1c[nH]c2ccccc12)C(=O)N[C@@H](Cc1ccccc1)C(=O)N[C@@H](CCCNC(=N)N)C(=O)N[C@@H](CCC(N)=O)C(=O)N[C@H](C(=O)N[C@@H](CC(C)C)C(=O)N[C@@H](CC(C)C)C(=O)N[C@@H](C)C(=O)N[C@@H](C)C(=O)N1CCC[C@H]1C(=O)N[C@@H](C)C(=O)N[C@@H](C)C(=O)N[C@@H](C)C(=O)N1CCC[C@H]1C(=O)N[C@@H](CC(N)=O)C(=O)N[C@@H](CO)C(=O)N1CCC[C@H]1C(=O)N[C@@H](CCC(=O)O)C(=O)N[C@@H](CO)C(=O)N[C@H](C(N)=O)[C@@H](C)O)[C@@H](C)O` [NBD-TIRAP^Ala] (H-[N(NBD)Gly]KMADWFRQTLLAAPAAAPNSPEST-NH2), the “Internalised peptide” value in the data set on RAW 264.7 cells [1] and in the data set with HeLa cells was “substantially less fluorescent” throughout. For `CC[C@H](C)[C@H](NC(=O)[C@H](C)NC(=O)CNC(=O)CNC(=O)[C@@H]1CCCN1C(=O)[C@@H](NC(=O)[C@H](C)NC(=O)[C@H](CC(=O)O)NC(=O)[C@H](CCCNC(=N)N)NC(=O)[C@H](CC(C)C)NC(=O)[C@H](CCC(N)=O)NC(=O)[C@H](CC(C)C)NC(=O)[C@@H](NC(=O)[C@H](CO)NC(=O)[C@H](CCC(=O)O)NC(=O)[C@@H]1CCCN1C(=O)[C@H](CO)NC(=O)[C@H](CC(N)=O)NC(=O)[C@@H]1CCCN1C(=O)[C@H](CCCNC(=N)N)NC(=O)[C@H](CCCCN)NC(=O)[C@H](CCCCN)NC(=O)[C@@H]1CCCN1C(=O)[C@H](CCCCN)NC(=O)[C@H](CCCCN)NC(=O)[C@H](CC(C)C)NC(=O)[C@H](CC(C)C)NC(=O)[C@@H](NC(=O)[C@H](CCC(N)=O)NC(=O)[C@H](CCCNC(=N)N)NC(=O)[C@H](Cc1ccccc1)NC(=O)[C@H](Cc1c[nH]c2ccccc12)NC(=O)[C@H](CC(=O)O)NC(=O)[C@H](C)NC(=O)[C@H](CCSC)NC(=O)[C@H](CCCCN)NC(=O)CN)[C@@H](C)O)[C@@H](C)O)[C@@H](C)O)C(=O)N[C@H](C(=O)N[C@@H](CO)C(N)=O)C(C)C` [TBX2] (H-GKMADWFRQTLLKKPKKRPNSPESTLQLRDATPGGAIVS-NH2), in the data set on RAW 264.7 cells [2], the Cellular viability result is recorded as “no significant reduction in cellular viability”. `C[C@H](NC(=O)[C@H](C)NC(=O)[C@H](CCC(N)=O)NC(=O)[C@H](C)NC(=O)[C@H](C)NC(=O)[C@H](CCCCN)NC(=O)[C@H](CCCCN)NC(=O)[C@H](CCCNC(=N)N)NC(=O)CNc1ccc([N+](=O)[O-])c2nonc12)C(=O)N[C@@H](C)C(=O)N1CCC[C@H]1C(=O)N1CCC[C@H]1C(=O)N[C@@H](CCC(N)=O)C(N)=O` [TAT^Ala, reference compound] (H-[N(NBD)Gly]RKKAAQAAAPPQ-NH2): in the data set on HeLa cells, the “Internalised peptide” value is recorded as “very little fluorescence”.
